Results on five compounds are retold here after paper doi:10.1101/2024.08.19.608619, “Discovery of potent SARS-CoV-2 nsp3 macrodomain inhibitors uncovers lack of translation to cellular antiviral response” (bioRxiv, 2024).

Common to all, as to experiment: biochemical
Common to all, as to design: In vitro kinase panel profiling, per cent remaining kinase activity at 10 uM

The target in one experiment is T1, eEF-2K(h) (Homo sapiens, UniProt O00418).
T1 construct: gene EEF2K
T1 sequence (O00418 1-725): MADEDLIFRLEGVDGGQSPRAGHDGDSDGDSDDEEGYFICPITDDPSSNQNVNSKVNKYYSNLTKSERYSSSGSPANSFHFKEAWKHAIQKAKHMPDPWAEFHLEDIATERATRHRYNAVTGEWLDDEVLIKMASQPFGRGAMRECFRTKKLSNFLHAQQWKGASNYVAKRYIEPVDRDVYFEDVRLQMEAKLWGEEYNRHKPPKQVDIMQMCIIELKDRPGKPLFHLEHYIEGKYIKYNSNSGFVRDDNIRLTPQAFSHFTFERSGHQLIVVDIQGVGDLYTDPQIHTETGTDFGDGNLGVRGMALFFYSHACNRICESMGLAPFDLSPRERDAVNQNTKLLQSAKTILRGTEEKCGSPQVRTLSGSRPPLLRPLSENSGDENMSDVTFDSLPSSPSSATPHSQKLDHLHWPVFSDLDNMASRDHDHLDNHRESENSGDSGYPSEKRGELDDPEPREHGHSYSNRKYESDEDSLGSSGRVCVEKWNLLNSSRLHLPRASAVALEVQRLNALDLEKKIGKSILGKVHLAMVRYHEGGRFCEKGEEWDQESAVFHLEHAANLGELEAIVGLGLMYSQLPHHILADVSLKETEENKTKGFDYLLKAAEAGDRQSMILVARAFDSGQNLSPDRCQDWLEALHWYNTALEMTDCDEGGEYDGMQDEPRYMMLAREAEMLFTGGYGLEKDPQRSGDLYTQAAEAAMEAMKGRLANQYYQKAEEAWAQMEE
The note with it: atp_concentration=15, read-out: % of control remaining. The text has this: (§1) We derisk potential for off-target activity by profiling the compound in a CEREP panel, a standard secondary pharmacology assessment, as well as a kinase panel to derisk a potential hinge-binding motif in our leads, and a PARP panel to derisk activity against human […]. Reassuringly, the compounds are selective, with the only off-targets being moderate human CHRM2 and KOR receptors activity associated with ASAP-0011198.

In experiment [1] the target is T2, PI3 Kinase (p110β/p85α)(h) (Homo sapiens, UniProt P42338).
T2 construct: gene PIK3CB
The note with it: atp_concentration=200, read-out: % of control remaining.
From the text: as §1

In the next experiment the target is T3, c-RAF(h) (Homo sapiens, UniProt P04049).
T3 construct: gene RAF1
The note with it: atp_concentration=120, read-out: % of control remaining.
From the text: as §1

In the next experiment the target is EphA5(h) (Homo sapiens, UniProt P54756). The note with it: atp_concentration=10, read-out: % of control remaining.
From the text: as §1

A further experiment has as its target T4, IGF-1R(h) (Homo sapiens, UniProt P08069).
T4 construct: gene IGF1R
The note with it: atp_concentration=200, read-out: % of control remaining.
From the text: as §1

The next experiment has as its target T5, AMPKα1(h) (Homo sapiens, UniProt Q13131).
T5 construct: gene PRKAA1
The note with it: atp_concentration=45, read-out: % of control remaining.
From the text: as §1

Another experiment addresses PAK2(h) (Homo sapiens, UniProt Q13177). The note with it: atp_concentration=90, read-out: % of control remaining.
From the text: as §1

For the next experiment, the target named is T6, NEK2(h) (Homo sapiens, UniProt P51955).
T6 sequence (P51955 1-445): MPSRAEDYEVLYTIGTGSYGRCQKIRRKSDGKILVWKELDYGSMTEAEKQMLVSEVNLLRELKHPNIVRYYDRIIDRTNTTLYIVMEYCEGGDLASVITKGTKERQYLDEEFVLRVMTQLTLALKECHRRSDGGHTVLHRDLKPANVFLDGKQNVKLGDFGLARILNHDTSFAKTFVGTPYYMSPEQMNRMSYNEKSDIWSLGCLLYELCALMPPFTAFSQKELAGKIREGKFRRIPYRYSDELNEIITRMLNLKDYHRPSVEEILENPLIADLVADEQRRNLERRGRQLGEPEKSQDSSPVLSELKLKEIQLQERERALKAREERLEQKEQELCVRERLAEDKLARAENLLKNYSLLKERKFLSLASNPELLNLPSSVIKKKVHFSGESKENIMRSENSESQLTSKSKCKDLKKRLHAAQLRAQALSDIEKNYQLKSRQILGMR
The note with it: atp_concentration=120, read-out: % of control remaining.
From the text: as §1

The target in a further experiment is T7, PRAK(h) (Homo sapiens, UniProt Q8IW41).
T7 construct: gene MAPKAPK5
T7 sequence (Q8IW41 1-473): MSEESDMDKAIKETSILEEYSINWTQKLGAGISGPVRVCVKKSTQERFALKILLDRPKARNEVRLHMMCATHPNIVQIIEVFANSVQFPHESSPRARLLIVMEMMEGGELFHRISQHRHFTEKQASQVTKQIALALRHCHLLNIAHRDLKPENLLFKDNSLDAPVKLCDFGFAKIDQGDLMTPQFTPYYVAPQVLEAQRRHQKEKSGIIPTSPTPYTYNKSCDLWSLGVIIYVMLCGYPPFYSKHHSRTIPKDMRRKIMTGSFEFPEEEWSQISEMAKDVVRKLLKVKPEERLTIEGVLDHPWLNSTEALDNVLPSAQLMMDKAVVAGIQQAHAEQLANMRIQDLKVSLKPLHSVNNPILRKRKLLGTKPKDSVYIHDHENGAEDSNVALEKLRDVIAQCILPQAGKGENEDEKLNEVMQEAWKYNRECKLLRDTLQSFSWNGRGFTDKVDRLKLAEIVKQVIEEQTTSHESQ
The note with it: atp_concentration=15, read-out: % of control remaining.
From the text: as §1

The next experiment has as its target T8, PI3 Kinase (p120γ)(h) (Homo sapiens, UniProt P48736).
T8 construct: gene PIK3CG
The note with it: atp_concentration=100, read-out: % of control remaining.
From the text: as §1

Read-outs that look alike come from different tables or passages of the source.

T5 sequence (Q13131 whole entry): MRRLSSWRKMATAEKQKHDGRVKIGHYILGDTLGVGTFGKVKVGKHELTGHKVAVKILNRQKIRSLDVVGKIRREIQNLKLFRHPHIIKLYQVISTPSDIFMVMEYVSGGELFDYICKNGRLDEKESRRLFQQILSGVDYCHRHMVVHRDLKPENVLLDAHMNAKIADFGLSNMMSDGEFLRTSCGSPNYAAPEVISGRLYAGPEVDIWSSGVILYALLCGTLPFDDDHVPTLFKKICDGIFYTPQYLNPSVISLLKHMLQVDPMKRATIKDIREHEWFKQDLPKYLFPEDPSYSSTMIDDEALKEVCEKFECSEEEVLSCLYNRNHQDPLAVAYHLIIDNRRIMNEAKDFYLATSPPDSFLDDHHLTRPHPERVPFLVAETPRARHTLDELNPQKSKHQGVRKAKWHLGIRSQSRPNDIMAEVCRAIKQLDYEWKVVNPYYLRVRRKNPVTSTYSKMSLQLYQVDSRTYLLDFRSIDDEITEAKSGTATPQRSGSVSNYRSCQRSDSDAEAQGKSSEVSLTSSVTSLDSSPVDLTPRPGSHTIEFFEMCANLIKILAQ
T5 sequence (P54619 whole entry partner): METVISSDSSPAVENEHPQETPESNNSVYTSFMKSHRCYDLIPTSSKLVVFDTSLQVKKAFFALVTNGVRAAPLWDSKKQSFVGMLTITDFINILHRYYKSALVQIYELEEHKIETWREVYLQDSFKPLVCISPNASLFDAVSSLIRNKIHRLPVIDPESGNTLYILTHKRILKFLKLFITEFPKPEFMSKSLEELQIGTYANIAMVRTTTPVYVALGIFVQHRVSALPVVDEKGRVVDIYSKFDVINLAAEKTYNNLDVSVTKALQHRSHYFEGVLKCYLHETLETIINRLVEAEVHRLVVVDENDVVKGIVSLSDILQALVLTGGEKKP
T5 sequence (Q9Y478 whole entry partner): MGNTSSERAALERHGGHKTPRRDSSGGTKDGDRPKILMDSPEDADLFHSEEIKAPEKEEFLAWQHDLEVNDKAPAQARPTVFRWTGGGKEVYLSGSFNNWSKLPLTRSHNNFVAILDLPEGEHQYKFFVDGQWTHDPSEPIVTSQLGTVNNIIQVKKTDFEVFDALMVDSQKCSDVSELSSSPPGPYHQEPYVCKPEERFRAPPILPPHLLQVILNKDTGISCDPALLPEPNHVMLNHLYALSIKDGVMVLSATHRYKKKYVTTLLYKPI
T4 sequence (P08069 whole entry): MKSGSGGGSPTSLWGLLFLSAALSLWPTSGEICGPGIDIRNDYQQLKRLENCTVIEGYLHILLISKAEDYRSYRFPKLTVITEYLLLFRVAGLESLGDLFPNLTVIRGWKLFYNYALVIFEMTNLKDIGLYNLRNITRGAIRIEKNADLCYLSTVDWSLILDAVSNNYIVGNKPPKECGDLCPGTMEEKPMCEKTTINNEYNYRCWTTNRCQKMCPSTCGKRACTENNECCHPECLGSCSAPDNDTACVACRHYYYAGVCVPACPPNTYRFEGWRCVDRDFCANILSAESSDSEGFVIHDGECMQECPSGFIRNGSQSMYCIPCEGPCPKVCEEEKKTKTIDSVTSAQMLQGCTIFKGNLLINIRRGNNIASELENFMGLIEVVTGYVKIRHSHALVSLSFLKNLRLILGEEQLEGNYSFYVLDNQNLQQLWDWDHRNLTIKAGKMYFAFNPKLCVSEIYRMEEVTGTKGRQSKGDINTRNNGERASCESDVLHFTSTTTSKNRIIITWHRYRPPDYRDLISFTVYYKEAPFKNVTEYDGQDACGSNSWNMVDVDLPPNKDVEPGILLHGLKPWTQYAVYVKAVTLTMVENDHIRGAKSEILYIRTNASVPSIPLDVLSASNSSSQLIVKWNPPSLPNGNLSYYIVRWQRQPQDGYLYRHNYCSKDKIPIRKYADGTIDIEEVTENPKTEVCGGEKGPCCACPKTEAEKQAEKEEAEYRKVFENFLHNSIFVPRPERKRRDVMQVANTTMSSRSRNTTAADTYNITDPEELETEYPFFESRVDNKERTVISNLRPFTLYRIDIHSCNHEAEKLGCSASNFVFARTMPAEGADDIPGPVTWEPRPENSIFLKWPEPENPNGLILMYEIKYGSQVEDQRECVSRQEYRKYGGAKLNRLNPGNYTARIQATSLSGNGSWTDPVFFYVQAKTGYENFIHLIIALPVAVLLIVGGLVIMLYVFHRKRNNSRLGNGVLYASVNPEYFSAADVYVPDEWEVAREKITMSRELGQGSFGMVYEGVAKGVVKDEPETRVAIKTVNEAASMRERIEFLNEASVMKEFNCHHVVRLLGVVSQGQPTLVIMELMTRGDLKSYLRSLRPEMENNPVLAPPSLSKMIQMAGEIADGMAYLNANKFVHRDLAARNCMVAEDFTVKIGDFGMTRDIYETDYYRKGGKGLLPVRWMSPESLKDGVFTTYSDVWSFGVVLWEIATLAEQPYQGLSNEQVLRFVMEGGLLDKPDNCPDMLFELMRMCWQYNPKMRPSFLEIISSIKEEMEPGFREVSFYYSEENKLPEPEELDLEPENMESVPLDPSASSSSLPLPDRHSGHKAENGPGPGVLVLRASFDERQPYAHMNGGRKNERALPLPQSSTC
Sequence of EphA5(h) (P54756 whole entry): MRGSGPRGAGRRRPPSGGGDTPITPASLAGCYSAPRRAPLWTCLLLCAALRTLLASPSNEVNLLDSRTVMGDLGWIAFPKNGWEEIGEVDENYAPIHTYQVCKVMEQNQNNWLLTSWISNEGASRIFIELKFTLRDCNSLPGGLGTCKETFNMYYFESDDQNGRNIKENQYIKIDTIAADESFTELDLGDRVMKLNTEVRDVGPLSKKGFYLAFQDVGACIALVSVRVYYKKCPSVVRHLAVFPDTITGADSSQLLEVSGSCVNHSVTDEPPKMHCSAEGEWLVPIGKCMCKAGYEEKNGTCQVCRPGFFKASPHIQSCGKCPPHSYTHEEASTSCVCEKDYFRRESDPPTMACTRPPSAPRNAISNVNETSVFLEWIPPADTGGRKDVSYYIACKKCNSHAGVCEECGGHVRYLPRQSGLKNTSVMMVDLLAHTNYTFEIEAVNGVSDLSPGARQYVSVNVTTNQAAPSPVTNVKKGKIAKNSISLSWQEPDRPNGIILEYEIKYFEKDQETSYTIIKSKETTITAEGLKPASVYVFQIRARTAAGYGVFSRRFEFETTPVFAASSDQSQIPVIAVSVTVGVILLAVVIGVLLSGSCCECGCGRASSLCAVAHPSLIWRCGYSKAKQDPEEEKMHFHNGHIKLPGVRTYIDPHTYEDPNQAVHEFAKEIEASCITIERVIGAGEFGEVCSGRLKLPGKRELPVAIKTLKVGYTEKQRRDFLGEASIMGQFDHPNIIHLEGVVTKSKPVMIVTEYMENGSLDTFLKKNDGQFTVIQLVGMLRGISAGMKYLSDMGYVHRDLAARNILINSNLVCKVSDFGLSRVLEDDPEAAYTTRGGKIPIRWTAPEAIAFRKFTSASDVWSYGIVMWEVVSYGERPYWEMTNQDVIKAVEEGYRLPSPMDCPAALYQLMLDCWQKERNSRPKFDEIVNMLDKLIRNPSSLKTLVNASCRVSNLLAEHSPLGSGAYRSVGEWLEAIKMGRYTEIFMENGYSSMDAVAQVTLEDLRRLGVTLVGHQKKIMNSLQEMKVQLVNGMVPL
T3 sequence (P04049 whole entry): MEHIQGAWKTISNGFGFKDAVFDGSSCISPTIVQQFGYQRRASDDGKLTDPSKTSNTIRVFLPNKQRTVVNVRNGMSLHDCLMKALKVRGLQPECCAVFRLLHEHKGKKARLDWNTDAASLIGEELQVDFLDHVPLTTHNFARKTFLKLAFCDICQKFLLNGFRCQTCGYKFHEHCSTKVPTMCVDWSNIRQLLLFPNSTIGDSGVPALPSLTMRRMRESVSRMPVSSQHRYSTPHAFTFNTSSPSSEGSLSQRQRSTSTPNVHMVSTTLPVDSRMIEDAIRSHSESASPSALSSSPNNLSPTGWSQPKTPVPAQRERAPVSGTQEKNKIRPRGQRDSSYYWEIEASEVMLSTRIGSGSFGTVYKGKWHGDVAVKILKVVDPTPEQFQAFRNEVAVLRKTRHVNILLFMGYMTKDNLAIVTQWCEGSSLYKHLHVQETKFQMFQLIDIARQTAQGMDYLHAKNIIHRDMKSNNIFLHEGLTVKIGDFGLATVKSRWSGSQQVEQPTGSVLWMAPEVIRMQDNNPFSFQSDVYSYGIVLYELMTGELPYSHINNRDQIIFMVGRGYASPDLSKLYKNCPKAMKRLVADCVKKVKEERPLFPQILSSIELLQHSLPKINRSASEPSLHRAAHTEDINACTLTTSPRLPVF
Sequence of PAK2(h) (Q13177 whole entry): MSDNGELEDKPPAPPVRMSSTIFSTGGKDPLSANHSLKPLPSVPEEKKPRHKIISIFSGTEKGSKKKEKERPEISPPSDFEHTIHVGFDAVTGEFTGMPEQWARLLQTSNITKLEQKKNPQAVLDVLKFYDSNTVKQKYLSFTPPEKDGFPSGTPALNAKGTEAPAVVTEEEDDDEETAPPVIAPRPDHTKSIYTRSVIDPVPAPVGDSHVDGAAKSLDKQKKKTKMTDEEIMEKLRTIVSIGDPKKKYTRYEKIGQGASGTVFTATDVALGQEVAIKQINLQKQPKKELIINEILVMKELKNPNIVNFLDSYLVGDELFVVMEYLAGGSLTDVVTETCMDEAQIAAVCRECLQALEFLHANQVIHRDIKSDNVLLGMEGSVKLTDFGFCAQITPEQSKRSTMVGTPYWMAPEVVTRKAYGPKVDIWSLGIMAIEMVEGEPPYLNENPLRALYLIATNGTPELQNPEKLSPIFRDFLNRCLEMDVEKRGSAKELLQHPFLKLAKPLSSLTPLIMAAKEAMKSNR

Regarding `COc1ccc([C@@H](Cc2nnn[nH]2)NC(=O)c2ncnc3[nH]ccc23)cc1` [ASAP-0008340], the remaining activity at 10 µM at eEF-2K(h) (batch_name=ASAP-0008340-001) worked out at 96%; in experiment [1] (batch_name=ASAP-0008340-001), 102%; at c-RAF(h) (batch_name=ASAP-0008340-001) it was 90%; on EphA5(h) (batch_name=ASAP-0008340-001), 106%; on IGF-1R(h) (batch_name=ASAP-0008340-001), 106%; at AMPKα1(h) (batch_name=ASAP-0008340-001), 101%. Further, the remaining activity at 10 µM was determined as 102% on PAK2(h) (batch_name=ASAP-0008340-001), 100% at NEK2(h) (batch_name=ASAP-0008340-001), 95% on PRAK(h) (batch_name=ASAP-0008340-001) and 89% on PI3 Kinase (p120γ)(h) (batch_name=ASAP-0008340-001).
In the case of `Cc1nn(C)cc1-c1cc2c(NC(c3ccc4c(c3)S(=O)(=O)CCC4)C(C)C)ncnc2[nH]1` (centres unmarked) [ASAP-0011446], the remaining activity at 10 µM was found to be 98% on eEF-2K(h) (batch_name=ASAP-0011446-002); 105% in experiment [1] (batch_name=ASAP-0011446-002); 93% on c-RAF(h) (batch_name=ASAP-0011446-002); 74% at EphA5(h) (batch_name=ASAP-0011446-002); 97% at IGF-1R(h) (batch_name=ASAP-0011446-002); 102% on AMPKα1(h) (batch_name=ASAP-0011446-002). The remaining activity at 10 µM was determined as 100% at PAK2(h) (batch_name=ASAP-0011446-002), 98% at NEK2(h) (batch_name=ASAP-0011446-002), 82% on PRAK(h) (batch_name=ASAP-0011446-002) and 96% at PI3 Kinase (p120γ)(h) (batch_name=ASAP-0011446-002).
For the compound `CNCc1cc(-c2cc3c(N[C@@H](c4ccc5c(c4)S(=O)(=O)CCC5)C(C)C)ncnc3[nH]2)co1` [ASAP-0011176], the remaining activity at 10 µM on eEF-2K(h) (batch_name=ASAP-0011176-002) came to 82%; in experiment [1] (batch_name=ASAP-0011176-002) it was 92%; at c-RAF(h) (batch_name=ASAP-0011176-002), 100%; on EphA5(h) (batch_name=ASAP-0011176-002), 78%; on IGF-1R(h) (batch_name=ASAP-0011176-002), 99%; on AMPKα1(h) (batch_name=ASAP-0011176-002), 86%. Besides, the remaining activity at 10 µM at PAK2(h) (batch_name=ASAP-0011176-002) was found to be 94%; at NEK2(h) (batch_name=ASAP-0011176-002), 105%; on PRAK(h) (batch_name=ASAP-0011176-002), 122%; on PI3 Kinase (p120γ)(h) (batch_name=ASAP-0011176-002), 96%.
With `C[C@H](C(=O)O)[C@@H](NC(=O)c1ncnc2[nH]ccc12)c1ccc(Br)cc1` [ASAP-0014722], the remaining activity at 10 µM on eEF-2K(h) (batch_name=ASAP-0014722-002) came out at 85%; in [1] (batch_name=ASAP-0014722-002), 97%; at c-RAF(h) (batch_name=ASAP-0014722-002) it was 108%; at EphA5(h) (batch_name=ASAP-0014722-002), 99%; at IGF-1R(h) (batch_name=ASAP-0014722-002) it was 95%; on AMPKα1(h) (batch_name=ASAP-0014722-002), 93%. Moreover, the remaining activity at 10 µM on PAK2(h) (batch_name=ASAP-0014722-002) worked out at 95%; on NEK2(h) (batch_name=ASAP-0014722-002) it was 101%; at PRAK(h) (batch_name=ASAP-0014722-002), 88%; at PI3 Kinase (p120γ)(h) (batch_name=ASAP-0014722-002), 97%.
`CC(C)C(Nc1ncnc2[nH]ccc12)c1ccc2c(c1)S(=O)(=O)CCC2` (centres unmarked) [ASAP-0008327]: the remaining activity at 10 µM at eEF-2K(h) (batch_name=ASAP-0008327-001) is 92%; in experiment [1] (batch_name=ASAP-0008327-001), 101%; on c-RAF(h) (batch_name=ASAP-0008327-001), 97%; at EphA5(h) (batch_name=ASAP-0008327-001), 110%; on IGF-1R(h) (batch_name=ASAP-0008327-001) it was 88%; at AMPKα1(h) (batch_name=ASAP-0008327-001) it was 94%. Further, the remaining activity at 10 µM stood at 110% on PAK2(h) (batch_name=ASAP-0008327-001), 118% at NEK2(h) (batch_name=ASAP-0008327-001), 107% at PRAK(h) (batch_name=ASAP-0008327-001) and 103% at PI3 Kinase (p120γ)(h) (batch_name=ASAP-0008327-001).
